Source: ChEMBL document CHEMBL1144811, “Design and synthesis of morpholine derivatives. SAR for dual serotonin & noradrenaline reuptake inhibition” (Bioorg Med Chem Lett, 2008)
Calls of active or inactive are those of the source. The rule behind the calls is not given here.

Experiments:
[1] = target: Sodium-dependent noradrenaline transporter (Homo sapiens, UniProt P23975); test: biochemical
Description: Inhibition of [3H]nisoxetine reuptake at human NET expressed in HEK293 cells

[2] = target: Sodium-dependent serotonin transporter (Homo sapiens, UniProt P31645); test: biochemical
Description: Inhibition of [3H]citalopram uptake at human 5HTT expressed in HEK293 cells

[3] = target: T1, Sodium-dependent dopamine transporter (Homo sapiens, UniProt Q01959); conditions: hek293
Description: (§1) Inhibition of [3H]dopamine reuptake at human DAT expressed in HEK293 cells

[4] = target: T1, Sodium-dependent dopamine transporter
Description: as §1

Histamine H1 receptor [5] = target: T2, Histamine H1 receptor (Homo sapiens, UniProt P35367); test: Inhibition of histamine H1 receptor
Histamine H1 receptor [6] = target: T2, Histamine H1 receptor
Histamine H1 receptor [7] = target: T2, Histamine H1 receptor; test: Inhibition of histamine H1 receptor at 10 uM
[8] = target: Norepinephrine transporter (Rattus norvegicus, UniProt Q9WTR4); test: Inhibition of rat NET expressed in HEK293 cells; format: cell-based
Cytochrome P450 3A4 = Cytochrome P450 3A4 (Homo sapiens, UniProt P08684); test: Inhibition of CYP3A4; format: ADME
Caco-2 [9] = test: Permeability from apical to basolateral side of human Caco-2 cell membrane at 10 uM; format: ADME, cell-based; conditions: caco-2, 10 µM
Cytochrome P450 1A2 = target: T3, Cytochrome P450 1A2 (Homo sapiens, UniProt P05177); test: Inhibition of CYP1A2; format: ADME
T3 sequence (P05177 whole entry): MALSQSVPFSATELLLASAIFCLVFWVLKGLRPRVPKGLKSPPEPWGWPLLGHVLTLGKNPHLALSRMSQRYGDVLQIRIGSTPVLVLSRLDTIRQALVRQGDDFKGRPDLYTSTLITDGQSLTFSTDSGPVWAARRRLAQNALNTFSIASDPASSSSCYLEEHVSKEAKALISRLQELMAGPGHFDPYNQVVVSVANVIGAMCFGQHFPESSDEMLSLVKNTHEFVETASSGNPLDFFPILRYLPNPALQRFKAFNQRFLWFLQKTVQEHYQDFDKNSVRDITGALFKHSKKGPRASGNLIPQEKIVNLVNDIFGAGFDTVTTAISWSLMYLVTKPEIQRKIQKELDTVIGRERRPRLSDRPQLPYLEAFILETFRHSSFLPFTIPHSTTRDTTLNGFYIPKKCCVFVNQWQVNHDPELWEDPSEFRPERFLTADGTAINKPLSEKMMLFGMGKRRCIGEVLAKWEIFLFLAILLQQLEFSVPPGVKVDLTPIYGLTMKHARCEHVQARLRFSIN

MDCK [10] = test: Permeability from basolateral to apical side of P-gp expressing MDCK cell membrane at 10 uM; format: ADME, cell-based, Canis lupus familiaris; conditions: dog
Cytochrome P450 2C19 = Cytochrome P450 2C19 (Homo sapiens, UniProt P33261); test: Inhibition of CYP2C19; format: ADME
[11] = target: Voltage-gated inwardly rectifying potassium channel KCNH2 (Homo sapiens, UniProt Q12809); test: Displacement of [3H]dofetilide from human ERG
[12] = Metabolic stability in human hepatocytes; format: ADME, cell-based, Liver, Hepatocyte
[13] = Inhibition of calcium channel L type at diltiazem site
[14] = target: Sodium-dependent serotonin transporter (Rattus norvegicus, UniProt P31652); test: Inhibition of rat 5HTT expressed in HEK293 cells; format: cell-based
[15] = Metabolic stability in human liver microsomes; format: ADME, Microsome
Rattus norvegicus [16] = test: Increase in noradrenaline level in prefrontal cortex interstitial fluid of rat at 10 mg/kg, sc; format: functional; conditions: route subcutaneous
Rattus norvegicus [17] = test: Increase in 5-hydroxytryptamine level in prefrontal cortex interstitial fluid of rat at 10 mg/kg, sc; format: functional; conditions: route subcutaneous
Caco-2 [18] = test: Permeability from basolateral to apical side of human Caco-2 cell membrane at 10 uM; format: ADME, cell-based; conditions: caco-2, 10 µM
Cytochrome P450 2C9 = Cytochrome P450 2C9 (Homo sapiens, UniProt P11712); test: Inhibition of CYP2C9; format: ADME
[19] = Inhibition of sodium channel site 2
Cytochrome P450 2D6 = Cytochrome P450 2D6 (Homo sapiens, UniProt P10635); test: Inhibition of CYP2D6; format: ADME
MDCK [20] = test: Permeability from apical to basolateral side of P-gp expressing MDCK cell membrane at 10 uM; format: ADME, cell-based, Canis lupus familiaris; conditions: dog
[21] = pKa, dissociation constant of the compound; format: physicochemical
[22] = Partition coefficient, log D at pH 7.4; format: physicochemical; conditions: octanol/water

T2 sequence (P35367 whole entry): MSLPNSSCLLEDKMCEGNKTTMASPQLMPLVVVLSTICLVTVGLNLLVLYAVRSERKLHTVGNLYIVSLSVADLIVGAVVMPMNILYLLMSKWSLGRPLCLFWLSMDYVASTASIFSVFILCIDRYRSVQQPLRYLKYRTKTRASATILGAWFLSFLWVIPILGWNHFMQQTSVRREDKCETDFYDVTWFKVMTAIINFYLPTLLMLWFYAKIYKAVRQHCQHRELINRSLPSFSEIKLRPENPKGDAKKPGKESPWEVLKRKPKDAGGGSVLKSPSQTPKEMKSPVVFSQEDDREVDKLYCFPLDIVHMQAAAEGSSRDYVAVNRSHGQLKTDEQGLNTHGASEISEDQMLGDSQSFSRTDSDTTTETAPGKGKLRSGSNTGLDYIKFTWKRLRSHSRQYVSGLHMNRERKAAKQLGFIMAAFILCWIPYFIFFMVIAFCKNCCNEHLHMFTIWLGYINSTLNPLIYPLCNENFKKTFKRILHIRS
T1 sequence (Q01959 whole entry): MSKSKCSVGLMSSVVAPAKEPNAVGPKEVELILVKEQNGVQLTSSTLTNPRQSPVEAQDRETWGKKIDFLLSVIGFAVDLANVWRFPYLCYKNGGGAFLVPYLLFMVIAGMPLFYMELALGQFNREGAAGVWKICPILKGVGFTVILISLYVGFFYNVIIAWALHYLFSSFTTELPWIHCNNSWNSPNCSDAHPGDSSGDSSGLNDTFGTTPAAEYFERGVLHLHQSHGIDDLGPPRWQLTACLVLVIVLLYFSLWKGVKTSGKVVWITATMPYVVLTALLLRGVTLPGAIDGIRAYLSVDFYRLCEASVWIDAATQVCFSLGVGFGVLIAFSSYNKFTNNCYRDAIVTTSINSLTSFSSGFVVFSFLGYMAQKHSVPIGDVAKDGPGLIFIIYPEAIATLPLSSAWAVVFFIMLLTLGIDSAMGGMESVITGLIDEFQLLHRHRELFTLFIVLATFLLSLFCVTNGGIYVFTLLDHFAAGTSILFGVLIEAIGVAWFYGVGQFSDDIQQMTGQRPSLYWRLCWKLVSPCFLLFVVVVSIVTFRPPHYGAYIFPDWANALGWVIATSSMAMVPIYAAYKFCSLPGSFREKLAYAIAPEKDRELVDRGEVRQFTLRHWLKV
Sodium-dependent noradrenaline transporter, sequence (P23975 whole entry): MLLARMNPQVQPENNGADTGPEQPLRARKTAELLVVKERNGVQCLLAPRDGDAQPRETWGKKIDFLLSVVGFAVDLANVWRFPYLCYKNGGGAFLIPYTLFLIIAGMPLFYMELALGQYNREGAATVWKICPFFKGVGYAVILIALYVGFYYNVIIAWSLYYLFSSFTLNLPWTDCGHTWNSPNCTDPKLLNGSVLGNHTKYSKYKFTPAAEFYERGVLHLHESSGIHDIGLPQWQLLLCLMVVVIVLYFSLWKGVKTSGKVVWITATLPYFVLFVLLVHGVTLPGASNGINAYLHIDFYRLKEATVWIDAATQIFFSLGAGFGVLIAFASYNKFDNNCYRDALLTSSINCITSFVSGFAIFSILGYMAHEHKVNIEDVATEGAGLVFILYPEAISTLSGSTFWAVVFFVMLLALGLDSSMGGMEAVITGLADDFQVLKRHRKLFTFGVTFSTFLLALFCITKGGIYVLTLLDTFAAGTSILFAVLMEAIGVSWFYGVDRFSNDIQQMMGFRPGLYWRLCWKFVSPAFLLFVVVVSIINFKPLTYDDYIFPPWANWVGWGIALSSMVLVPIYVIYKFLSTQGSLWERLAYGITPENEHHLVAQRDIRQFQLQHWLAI
Sodium-dependent serotonin transporter (Homo sapiens, UniProt P31645), sequence (P31645 whole entry): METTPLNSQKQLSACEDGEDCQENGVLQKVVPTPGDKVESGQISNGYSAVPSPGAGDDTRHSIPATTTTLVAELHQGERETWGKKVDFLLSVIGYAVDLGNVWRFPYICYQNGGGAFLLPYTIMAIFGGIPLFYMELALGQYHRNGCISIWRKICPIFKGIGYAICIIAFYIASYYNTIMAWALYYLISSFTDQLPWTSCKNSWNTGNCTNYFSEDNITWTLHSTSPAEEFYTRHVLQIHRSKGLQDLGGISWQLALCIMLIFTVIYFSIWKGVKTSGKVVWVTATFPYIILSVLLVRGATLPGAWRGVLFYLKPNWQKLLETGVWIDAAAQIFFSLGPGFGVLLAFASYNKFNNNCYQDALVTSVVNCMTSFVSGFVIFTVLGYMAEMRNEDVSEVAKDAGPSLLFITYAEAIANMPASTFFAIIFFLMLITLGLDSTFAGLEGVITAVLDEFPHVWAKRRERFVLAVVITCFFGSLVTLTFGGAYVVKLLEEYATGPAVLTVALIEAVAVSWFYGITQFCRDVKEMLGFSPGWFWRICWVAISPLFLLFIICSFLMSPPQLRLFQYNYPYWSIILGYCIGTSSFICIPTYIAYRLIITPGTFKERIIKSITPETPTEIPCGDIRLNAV
Cytochrome P450 2C9, sequence (P11712 whole entry): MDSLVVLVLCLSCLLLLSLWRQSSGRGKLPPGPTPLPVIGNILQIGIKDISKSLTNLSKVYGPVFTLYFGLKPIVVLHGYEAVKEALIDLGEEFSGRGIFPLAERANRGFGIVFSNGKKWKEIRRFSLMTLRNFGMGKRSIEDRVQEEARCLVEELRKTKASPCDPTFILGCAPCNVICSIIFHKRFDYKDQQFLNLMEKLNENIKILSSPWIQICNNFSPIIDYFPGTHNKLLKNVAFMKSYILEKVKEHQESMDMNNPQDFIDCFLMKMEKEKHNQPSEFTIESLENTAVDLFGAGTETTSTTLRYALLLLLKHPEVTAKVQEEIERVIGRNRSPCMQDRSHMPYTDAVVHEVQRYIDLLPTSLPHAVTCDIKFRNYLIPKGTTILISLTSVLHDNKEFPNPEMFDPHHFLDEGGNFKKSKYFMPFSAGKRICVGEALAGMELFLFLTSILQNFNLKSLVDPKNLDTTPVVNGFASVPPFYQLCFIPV
Cytochrome P450 2D6, sequence (P10635 whole entry): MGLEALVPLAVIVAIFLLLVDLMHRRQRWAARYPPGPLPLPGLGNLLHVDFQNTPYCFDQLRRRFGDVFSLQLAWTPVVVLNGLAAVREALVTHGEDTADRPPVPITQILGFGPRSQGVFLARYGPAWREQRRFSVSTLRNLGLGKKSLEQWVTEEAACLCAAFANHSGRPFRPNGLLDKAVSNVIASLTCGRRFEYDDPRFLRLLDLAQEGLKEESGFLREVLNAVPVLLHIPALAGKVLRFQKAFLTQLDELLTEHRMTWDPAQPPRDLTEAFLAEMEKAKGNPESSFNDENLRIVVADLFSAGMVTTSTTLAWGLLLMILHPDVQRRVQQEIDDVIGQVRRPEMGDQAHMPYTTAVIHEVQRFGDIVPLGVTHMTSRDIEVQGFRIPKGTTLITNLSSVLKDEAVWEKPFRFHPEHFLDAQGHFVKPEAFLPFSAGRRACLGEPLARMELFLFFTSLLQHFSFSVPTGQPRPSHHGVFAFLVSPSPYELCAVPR
Cytochrome P450 3A4, sequence (P08684 whole entry): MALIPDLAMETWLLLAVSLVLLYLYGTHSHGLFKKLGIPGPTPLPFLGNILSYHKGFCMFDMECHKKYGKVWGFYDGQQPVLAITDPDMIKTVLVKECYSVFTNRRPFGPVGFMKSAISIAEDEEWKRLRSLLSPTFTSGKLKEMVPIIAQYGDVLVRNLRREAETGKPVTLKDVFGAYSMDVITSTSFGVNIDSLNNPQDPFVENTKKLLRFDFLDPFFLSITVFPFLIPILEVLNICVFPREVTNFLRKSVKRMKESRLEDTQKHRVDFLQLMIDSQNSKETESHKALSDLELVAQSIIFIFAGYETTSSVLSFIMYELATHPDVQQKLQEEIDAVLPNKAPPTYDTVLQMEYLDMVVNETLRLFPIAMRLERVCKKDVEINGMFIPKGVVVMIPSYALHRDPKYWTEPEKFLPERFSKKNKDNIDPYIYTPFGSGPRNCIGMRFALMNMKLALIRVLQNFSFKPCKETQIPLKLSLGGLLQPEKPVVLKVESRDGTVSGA
Norepinephrine transporter, sequence (Q9WTR4 whole entry): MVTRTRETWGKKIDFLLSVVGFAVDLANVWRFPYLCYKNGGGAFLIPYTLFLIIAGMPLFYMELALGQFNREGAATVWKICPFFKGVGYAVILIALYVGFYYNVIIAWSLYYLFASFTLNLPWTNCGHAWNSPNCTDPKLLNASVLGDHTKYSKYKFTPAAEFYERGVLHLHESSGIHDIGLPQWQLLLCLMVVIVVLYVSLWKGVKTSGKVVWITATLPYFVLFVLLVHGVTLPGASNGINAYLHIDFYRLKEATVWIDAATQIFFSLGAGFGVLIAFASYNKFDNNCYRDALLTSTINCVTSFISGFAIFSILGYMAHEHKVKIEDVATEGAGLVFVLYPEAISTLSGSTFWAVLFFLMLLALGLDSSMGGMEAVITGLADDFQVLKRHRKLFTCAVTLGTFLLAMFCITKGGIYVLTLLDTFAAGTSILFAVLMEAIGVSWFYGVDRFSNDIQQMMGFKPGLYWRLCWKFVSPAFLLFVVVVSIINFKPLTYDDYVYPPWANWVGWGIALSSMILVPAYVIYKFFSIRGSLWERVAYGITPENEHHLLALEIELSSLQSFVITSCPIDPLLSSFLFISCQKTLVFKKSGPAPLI
Cytochrome P450 2C19, sequence (P33261 whole entry): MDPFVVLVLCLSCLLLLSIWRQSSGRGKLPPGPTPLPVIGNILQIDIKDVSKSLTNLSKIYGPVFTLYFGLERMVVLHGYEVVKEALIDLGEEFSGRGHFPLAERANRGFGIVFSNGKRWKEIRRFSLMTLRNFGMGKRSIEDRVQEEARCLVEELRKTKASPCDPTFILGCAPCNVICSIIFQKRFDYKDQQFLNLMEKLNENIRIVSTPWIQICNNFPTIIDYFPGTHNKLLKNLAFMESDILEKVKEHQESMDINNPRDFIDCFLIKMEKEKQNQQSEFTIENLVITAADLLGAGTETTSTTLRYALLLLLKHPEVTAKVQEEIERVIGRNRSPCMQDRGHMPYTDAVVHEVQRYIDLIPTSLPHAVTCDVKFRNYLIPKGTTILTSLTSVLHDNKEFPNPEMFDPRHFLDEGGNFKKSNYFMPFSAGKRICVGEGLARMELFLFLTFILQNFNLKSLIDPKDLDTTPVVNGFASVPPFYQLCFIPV

Row | Ki [1] | Ki [2] | Ki [4] | SMILES | other results
1 | 275 nM | 240 nM | – | CCOc1c(Cl)cccc1OC(c1ccccc1)C1CNCCO1 (racemic; syn) | Ki [3]: > 10000 nM
2 | 180 nM | 88 nM | 1650 nM | COc1cc(Cl)ccc1O[C@@H](c1ccc(C)cc1)[C@@H]1CNCCO1 | –
3 | 16 nM | 69 nM | – | COc1cc(Cl)ccc1O[C@@H](c1cccc(C)c1)[C@@H]1CNCCO1 | –
4 | – | 30 nM | – | COc1cc(Br)ccc1O[C@@H](c1ccccc1)[C@@H]1CNCCO1 | –
5 | 18 nM | 185 nM | 1250 nM | Cc1cc(F)ccc1O[C@@H](c1ccccc1)[C@@H]1CNCCO1 | Activity (Histamine H1 receptor [5]): inactive
6 | – | – | 2200 nM | COc1cc(Cl)ccc1OC(c1ccccc1)C1CNCCO1 (racemic; anti) | –
7 | 390 nM | 220 nM | 1670 nM | CCOc1cc(Cl)ccc1OC(c1ccccc1)C1CNCCO1 (racemic; anti) | –
8 | 29 nM | 62 nM | – | COc1cc(Cl)ccc1O[C@@H](c1ccc(F)cc1)[C@@H]1CNCCO1 | –
9 | – | – | 1170 nM | Fc1ccc(O[C@@H](c2ccccc2)[C@@H]2CNCCO2)c(Cl)c1 | Activity (Histamine H1 receptor [5]): inactive
10 | 610 nM | 22 nM | – | COc1cc(F)ccc1O[C@H](c1ccccc1)[C@H]1CNCCO1 | Ki (Histamine H1 receptor [6]): 10 nM
11 | 1490 nM | 340 nM | > 10000 nM | CCOc1c(Cl)cccc1OC(c1ccccc1)C1CNCCO1 (racemic; anti) | –
12 | 17 nM | 100 nM | 420 nM | Clc1cccc(O[C@@H](c2ccccc2)[C@@H]2CNCCO2)c1Cl | –
13 | 10 nM | 3390 nM | 2600 nM | Fc1cccc(O[C@@H](c2ccccc2)[C@@H]2CNCCO2)c1F | Activity (Histamine H1 receptor [5]): inactive
14 | – | – | 1570 nM | COc1cc(Cl)ccc1O[C@@H](c1ccccc1)[C@@H]1CNCCO1 | inhibition (Histamine H1 receptor [7]): < 20%; Ki [8]: 6 nM; IC50 (Cytochrome P450 3A4): > 29000 nM; Papp (Caco-2 [9]): 18 10^-6/cm; IC50 (Cytochrome P450 1A2): > 29000 nM; Papp (MDCK [10]): 35 10^-6/cm; IC50 (Cytochrome P450 2C19): > 29000 nM; Ki [11]: 3300 nM; half-life [12]: 3.1 h; Ki [13]: 2000 nM; Ki [14]: 59 nM; half-life [15]: > 2 h; Activity (Rattus norvegicus [16]): 170%; Activity (Rattus norvegicus [17]): 160%; Papp (Caco-2 [18]): 16 10^-6/cm; IC50 (Cytochrome P450 2C9): > 29000 nM; Ki [19]: 1200 nM; IC50 (Cytochrome P450 2D6): > 29000 nM; Papp (MDCK [20]): 22 10^-6/cm
15 | – | – | 1790 nM | COc1cc(Cl)ccc1O[C@H](c1ccccc1)[C@H]1CNCCO1 | Ki (Histamine H1 receptor [6]): 26 nM
16 | – | – | 5050 nM | COc1cc(Cl)ccc1OC(c1ccccc1)C1CNCCO1 (racemic; syn) | pKa [21]: 7.7; logD [22]: 1.9
17 | 9 nM | 58 nM | 10800 nM | COc1cc(Cl)ccc1O[C@@H](c1cccc(F)c1)[C@@H]1CNCCO1 | –
18 | 22 nM | 70 nM | – | COc1cc(Cl)ccc1O[C@@H](c1ccccc1F)[C@@H]1CNCCO1 | –
19 | 28 nM | 96 nM | 1090 nM | COc1ccc(O[C@@H](c2ccccc2)[C@@H]2CNCCO2)c(Cl)c1 | –
20 | 130 nM | 12 nM | 380 nM | Fc1cccc(O[C@H](c2ccccc2)[C@H]2CNCCO2)c1F | Ki (Histamine H1 receptor [6]): 10 nM
21 | 210 nM | 110 nM | – | COc1cc(C#N)ccc1O[C@@H](c1ccccc1)[C@@H]1CNCCO1 | –
22 | 860 nM | 34 nM | 950 nM | Cc1cc(F)ccc1O[C@H](c1ccccc1)[C@H]1CNCCO1 | Ki (Histamine H1 receptor [6]): 10 nM
23 | 15 nM | 60 nM | 1540 nM | CCOc1cc(Cl)ccc1OC(c1ccccc1)C1CNCCO1 (racemic; syn) | –
24 | 84 nM | 70 nM | – | COc1cc(Cl)ccc1O[C@@H](c1ccccc1C)[C@@H]1CNCCO1 | –
25 | 160 nM | 41 nM | – | COc1cc(C(F)(F)F)ccc1O[C@@H](c1ccccc1)[C@@H]1CNCCO1 | –
26 | – | – | 760 nM | Fc1ccc(O[C@H](c2ccccc2)[C@H]2CNCCO2)c(Cl)c1 | Ki (Histamine H1 receptor [6]): 10 nM
27 | 6 nM | 740 nM | 3080 nM | COc1cc(F)ccc1O[C@@H](c1ccccc1)[C@@H]1CNCCO1 | Activity (Histamine H1 receptor [5]): inactive

Row | SMILES | Ki [1] | Ki [2] | Ki [4] | other results
28 | c1ccc([C@@H](Oc2cccc3c2OCC3)[C@H]2CNCCO2)cc1 | 350 nM | 20 nM | 5750 nM | Ki (Histamine H1 receptor [6]): 10 nM
29 | c1ccc([C@H](Oc2cccc3c2OCC3)[C@@H]2CNCCO2)cc1 | 12 nM | 1800 nM | – | Activity (Histamine H1 receptor [5]): inactive
